Measurements published in patent US7402548B2, “Benzoxazole compounds, process for producing the same and herbicides” (Kyoyu Agri Co., Ltd., priority 2000, dated 2008).

How the values were obtained:
barnyard grass [1] = assay: Herbicidal test for paddy field; type: in vivo, Eschinochloa crusgalli; conditions: 500 g/ha, dropwise addition to paddy water at 1.5 leaf stage of barnyard grass; glass house 25° C., 3 weeks; rank 0-5 vs non-treated district
How it was run: (§1)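 Wettable-powder formulations in water with 0.05% surfactant were dripped onto flooded (3 cm) Ube alluvial-soil pots at 500 g/ha, applied at barnyard grass 1.5-leaf stage. Plants were kept in a glasshouse at 25° C. for 3 weeks. Damage was scored 0 (normal) to 5 (all killed) versus untreated plants.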

Large crabgrass [2] = assay: Soil treatment test for upland field; type: in vivo, Digitaria adscendens; parameters: key: 0 = normal development, 5 = all killed; conditions: 500 g/ha, 3 weeks, glass house 25° C.
How it was run: (§2)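 Seeds were sown in alluvial soil in pots, and a wettable powder diluted in water with 0.05% surfactant was sprayed evenly on the soil surface at 500 g/ha. Plants were kept in a glass house at about 25° C for 3 weeks, then damage was scored 0–5 against untreated controls.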

common lambsquarters [3] = assay: Soil treatment test for upland field; type: in vivo, Chenopodium album; parameters: key: 0 = normal development, 5 = all killed; conditions: 500 g/ha, 3 weeks, glass house 25° C.
How it was run: as §2

bulrush = assay: Herbicidal test for paddy field; type: in vivo, Scrips juncoides; conditions: 500 g/ha, dropwise addition to paddy water at 1.5 leaf stage of barnyard grass; glass house 25° C., 3 weeks; rank 0-5 vs non-treated district
How it was run: as §1

annual bluegrass [4] = assay: Foliar spread test for upland field; type: in vivo, Poa annua; parameters: key: 0 = normal development, 5 = all killed (6 ranks vs. untreated); conditions: foliar spray, 500 ppm, 3 weeks, glass house 25° C.
How it was run: (§3)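 Scores on a 0–5 scale (0 normal development, 5 all killed), relative to untreated controls, were taken 3 weeks post-treatment in a 25 °C glass house. Treatment was a uniform foliar spray at 500 ppm (0.5% surfactant) onto roughly 2-week-old soil-grown plants.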

livid amaranth [5] = assay: Foliar spread test for upland field; type: in vivo, Amaranthus lividus; parameters: key: 0 = normal development, 5 = all killed (6 ranks vs. untreated); conditions: foliar spray, 500 ppm, 3 weeks, glass house 25° C.
How it was run: as §3

solgum [6] = assay: Foliar spread test for upland field; type: in vivo; parameters: key: 0 = normal development, 5 = all killed (6 ranks vs. untreated); conditions: foliar spray, 500 ppm, 3 weeks, glass house 25° C.
How it was run: as §3

corn [7] = assay: Foliar spread test for upland field; type: in vivo; parameters: key: 0 = normal development, 5 = all killed (6 ranks vs. untreated); conditions: foliar spray, 500 ppm, 3 weeks, glass house 25° C.
How it was run: as §3

sugar beat [8] = assay: Foliar spread test for upland field; type: in vivo; parameters: key: 0 = normal development, 5 = all killed (6 ranks vs. untreated); conditions: foliar spray, 500 ppm, 3 weeks, glass house 25° C.
How it was run: as §3

soybean = assay: Foliar spread test for upland field; type: in vivo; parameters: key: 0 = normal development, 5 = all killed (6 ranks vs. untreated); conditions: foliar spray, 500 ppm, 3 weeks, glass house 25° C.
How it was run: as §3

wheat [9] = assay: Foliar spread test for upland field; type: in vivo; parameters: key: 0 = normal development, 5 = all killed (6 ranks vs. untreated); conditions: foliar spray, 500 ppm, 3 weeks, glass house 25° C.
How it was run: as §3

cotton = assay: Foliar spread test for upland field; type: in vivo; parameters: key: 0 = normal development, 5 = all killed (6 ranks vs. untreated); conditions: foliar spray, 500 ppm, 3 weeks, glass house 25° C.
How it was run: as §3

Cassia obtusifolia = assay: Foliar spread test for upland field; type: in vivo; parameters: key: 0 = normal development, 5 = all killed; conditions: foliar spray, 500 ppm, 3 weeks, glass house 25° C.
Procedure: (§4) The herbicidal effects are evaluated according to the following 6 ranks as compared with non-treated district. (0: normal development, 1: Less damaged, 2: Slightly damaged, 3: Moderately damaged, 4: Severely damaged, 5: All killed). Incidentally, “-” in the column means not investigated.
(§5) Wagner pots, each having an area of 1/5000 are, were packed with volcanic ash soil and then each seed of corn, soybean, cotton, wheat, solgum, sugar beat, Large crabgrass, barnyardgrjass, green foxtail, blackgrass, annual bluegrass, common lambsquarters, livid amaranth, velvetleaf, morning glory, Xanthium pensylvanicum and Cassia obtusifolia was planted, covered with soil and grown in a glass house at an average temperature of 25° C. for about 2 weeks.
(§6) Each wettable powder of the desired compounds (I) shown in Tables 1 to 21, 24, 25, 28 and 29 prepared in accordance with Example 2 was diluted to 500 ppm with water containing a surfactant (0.5%) and then uniformly sprayed on the above respective plants.
(§7) After these plants were controlled in a glass house at an average temperature of 25° C. for 3 weeks, the herbicidal effects thereof were investigated.
(§8) The herbicidal effects were evaluated according to the evaluation method described in the above (1).

Xanthium pensylvanicum = assay: Foliar spread test for upland field; type: in vivo; parameters: key: 0 = normal development, 5 = all killed; conditions: foliar spray, 500 ppm, 3 weeks, glass house 25° C.
Procedure: as §4, §5, §6, §7, §8

annual bluegrass [10] = assay: Soil treatment test for upland field; type: in vivo, Poa annua; parameters: key: 0 = normal development, 5 = all killed; conditions: 500 g/ha, 3 weeks, glass house 25° C.
How it was run: as §2

[11] = system: sicklepod (Cassia obtusifolia); assay: Soil treatment test for upland field; type: in vivo; conditions: 500 g/ha, 3 weeks, glass house 25° C.
Procedure: as §4
(§9) Wagner pots, each having an area of 1/5000 are, were packed with Ube soil (alluvial soil), and then each seed of corn, soybean, cotton, wheat, solgum, sugar beat, Large crabgrass, barnyard grass, green foxtail, blackgrass, annual bluegrass, common lambsquarters, livid amaranth, velvetleaf, morning glory, common Cocklebur (Xanthium strumarium) and sicklepod (Cassia obtusifolia) were planted and covered with soil.
(§10) Each wettable powder of the desired compounds (I) shown in Tables 1 to 21, 24, 25, 28 and 29 prepared in accordance with Example 2 was diluted with water containing a surfactant (0.05%) and uniformly sprayed on the surface of each soil so that an effective concentration of the compound (I) in each herbicide became 500 g/ha.
(§11) These plants were controlled in a glass house at an average temperature of 25° C. for 3 weeks, and then herbicidal effects thereof were investigated.
as §8

[12] = system: common Cocklebur (Xanthium strumarium); assay: Soil treatment test for upland field; type: in vivo; conditions: 500 g/ha, 3 weeks, glass house 25° C.
Procedure: as §4, §9, §10, §11, §8

blackgrass [13] = assay: Foliar spread test for upland field; type: in vivo, Alopecurus aegualis; parameters: key: 0 = normal development, 5 = all killed (6 ranks vs. untreated); conditions: foliar spray, 500 ppm, 3 weeks, glass house 25° C.
How it was run: as §3

Cyperus serotinus Rottb. = assay: Herbicidal test for paddy field; type: in vivo; conditions: 500 g/ha, dropwise addition to paddy water at 1.5 leaf stage of barnyard grass; glass house 25° C., 3 weeks; rank 0-5 vs non-treated district
How it was run: as §1

green foxtail [14] = assay: Foliar spread test for upland field; type: in vivo, Setaria viridis; parameters: key: 0 = normal development, 5 = all killed (6 ranks vs. untreated); conditions: foliar spray, 500 ppm, 3 weeks, glass house 25° C.
How it was run: as §3

velvetleaf [15] = assay: Foliar spread test for upland field; type: in vivo, Abutilon theophrasti; parameters: key: 0 = normal development, 5 = all killed (6 ranks vs. untreated); conditions: foliar spray, 500 ppm, 3 weeks, glass house 25° C.
How it was run: as §3

barnyard grass [16] = assay: Soil treatment test for upland field; type: in vivo, Eschinochloa crusgalli; parameters: key: 0 = normal development, 5 = all killed; conditions: 500 g/ha, 3 weeks, glass house 25° C.
How it was run: as §2

Large crabgrass [17] = assay: Foliar spread test for upland field; type: in vivo, Digitaria adscendens; parameters: key: 0 = normal development, 5 = all killed (6 ranks vs. untreated); conditions: foliar spray, 500 ppm, 3 weeks, glass house 25° C.
How it was run: as §3

green foxtail [18] = assay: Soil treatment test for upland field; type: in vivo, Setaria viridis; parameters: key: 0 = normal development, 5 = all killed; conditions: 500 g/ha, 3 weeks, glass house 25° C.
How it was run: as §2

blackgrass [19] = assay: Soil treatment test for upland field; type: in vivo, Alopecurus aegualis; parameters: key: 0 = normal development, 5 = all killed; conditions: 500 g/ha, 3 weeks, glass house 25° C.
How it was run: as §2

barnyardgrjass = assay: Foliar spread test for upland field; type: in vivo, Eschinochloa crusgalli; parameters: key: 0 = normal development, 5 = all killed (6 ranks vs. untreated); conditions: foliar spray, 500 ppm, 3 weeks, glass house 25° C.
How it was run: as §3

velvetleaf [20] = assay: Soil treatment test for upland field; type: in vivo, Abutilon theophrasti; parameters: key: 0 = normal development, 5 = all killed; conditions: 500 g/ha, 3 weeks, glass house 25° C.
How it was run: as §2

morning glory [21] = assay: Soil treatment test for upland field; type: in vivo, Ipomoea spps.; parameters: key: 0 = normal development, 5 = all killed; conditions: 500 g/ha, 3 weeks, glass house 25° C.
How it was run: as §2

arrowhead = assay: Herbicidal test for paddy field; type: in vivo, Sagittaria pygmaea; conditions: 500 g/ha, dropwise addition to paddy water at 1.5 leaf stage of barnyard grass; glass house 25° C., 3 weeks; rank 0-5 vs non-treated district
Procedure: Wagner pots, each having an area of 1/5000 are, were packed with Ube soil (alluvial soil) and planted with seeds or tubers of young rice plant, barnyard grass, bulrush, Cyperus serotinus Rottb., arrowhead and monochoria. Then, the pots were filled with water to a depth of 3 cm.
as §10, with “Compounds” for “compounds”, “subjected to dropwise addition treatment by using pipet” for “uniformly sprayed on the surface of each soil”, “g/ha at 1.5 leaf stage of barnyard grass.” for “g/ha.”
as §11, §4

common lambsquarters [22] = assay: Foliar spread test for upland field; type: in vivo, Chenopodium album; parameters: key: 0 = normal development, 5 = all killed (6 ranks vs. untreated); conditions: foliar spray, 500 ppm, 3 weeks, glass house 25° C.
How it was run: as §3

solgum [23] = assay: Soil treatment test for upland field; type: in vivo; parameters: key: 0 = normal development, 5 = all killed; conditions: 500 g/ha, 3 weeks, glass house 25° C.
How it was run: as §2

corn [24] = assay: Soil treatment test for upland field; type: in vivo; parameters: key: 0 = normal development, 5 = all killed; conditions: 500 g/ha, 3 weeks, glass house 25° C.
How it was run: as §2

sugar beat [25] = assay: Soil treatment test for upland field; type: in vivo; parameters: key: 0 = normal development, 5 = all killed; conditions: 500 g/ha, 3 weeks, glass house 25° C.
How it was run: as §2

wheat [26] = assay: Soil treatment test for upland field; type: in vivo; parameters: key: 0 = normal development, 5 = all killed; conditions: 500 g/ha, 3 weeks, glass house 25° C.
How it was run: as §2

livid amaranth [27] = assay: Soil treatment test for upland field; type: in vivo, Amaranthus lividus; parameters: key: 0 = normal development, 5 = all killed; conditions: 500 g/ha, 3 weeks, glass house 25° C.
How it was run: as §2

morning glory [28] = assay: Foliar spread test for upland field; type: in vivo, Ipomoea spps.; parameters: key: 0 = normal development, 5 = all killed (6 ranks vs. untreated); conditions: foliar spray, 500 ppm, 3 weeks, glass house 25° C.
How it was run: as §3

SMILES: FC(F)(F)c1cccc(Oc2cccc(-c3nc4ccccc4o3)n2)c1 [I-a-1]
- Effects Barnyardgrass (barnyard grass [1]): 4
- Effects Large crabgrass (Large crabgrass [2]): 5
- Effects Common lambsquarters (common lambsquarters [3]): 5
- Effects Bulrush (bulrush): 2
- Effects Annual bluegrass (annual bluegrass [4]): 4
- Effects Livid amaranth (livid amaranth [5]): 5
- Effects Solgum (solgum [6]): 2
- Effects Corn (corn [7]): 2
- Effects Sugar beat (sugar beat [8]): 4
- Effects Soybean (soybean): 5
- Effects Wheat (wheat [9]): 2
- Effects Sotton (cotton): 4
- Effects Sicklepod (Cassia obtusifolia): 5
- Effects Common Cocklebur (Xanthium pensylvanicum): 4
- Effects Annual bluegrass (annual bluegrass [10]): 5
- Effects Sicklepod [11]: 3
- Effects Common Cocklebur [12]: 5
- Effects Blackgrass (blackgrass [13]): 2
- Effects Cyperus serotinus Rottb. (Cyperus serotinus Rottb.): 2
- Effects Green foxtail (green foxtail [14]): 5
- Effects Velvetleaf (velvetleaf [15]): 4
- Effects Barnyardgrass (barnyard grass [16]): 4
- Effects Large crabgrass (Large crabgrass [17]): 4
- Effects Green foxtail (green foxtail [18]): 5
- Effects Blackgrass (blackgrass [19]): 4
- Effects Barnyardgrass (barnyardgrjass): 3
- Effects Velvetleaf (velvetleaf [20]): 3
- Effects Morning glory (morning glory [21]): 4
- Effects Arrowhead (arrowhead): 1
- Effects Common lambsquarters (common lambsquarters [22]): 5
- Effects Solgum (solgum [23]): 2
- Effects Corn (corn [24]): 0
- Effects Sugar beat (sugar beat [25]): 5
- Effects Wheat (wheat [26]): 1
- Effects Livid amaranth (livid amaranth [27]): 5
- Effects Morning glory (morning glory [28]): 5
